{"source": "patent US12690594B2", "about": "“Apparatus and methods for dissolving carbon dioxide in water” (ECO-OXYGEN TECHNOLOGIES, LLC, priority 2023, dated 2026)", "origin": "cited, not measured here", "test_system": "dreissenid mussel", "settings": "laboratory and field studies; no concentration or exposure time printed"}
{"smiles": "O=C=O", "note": "[carbon dioxide]", "values": [{"measurement": "mortality", "result": "successfully cause mortality"}, {"measurement": "rate of veliger byssogenesis (settlement and colonization)", "result": "reduction in the rate of veliger byssogenesis"}]}
